# Columns and labels:
# Assay type in all cases: in vivo
# [1] = system: large crabgrass (Digitaria sanguinalis); experiment: Test A pre-/postemergence plant response; conditions: for Crabgrass, Large plant response rating: visual injury, 0 to 100 scale (0 no effect, 100 complete control), approx. ten days
# Source text: (§1) Seeds of barnyardgrass (Echinochloa crus-galli), large crabgrass (Digitaria sanguinalis), giant foxtail (Setaria faberii), morningglory (Ipomoea spp.), pigweed (Amaranthus retroflexus), velvetleaf (Abutilon theophrasti), wheat (Triticum aestivum) and corn (Zea mays) were planted into a blend of loam soil and sand and treated preemergence with a directed soil spray using test chemicals formulated in a non-phytotoxic solvent mixture which included a surfactant. At the same time these species were also treated with postemergence applications of test compounds formulated in the same manner.
# (§2) Plants ranged in height from two to ten cm and were in the one- to two-leaf stage for the postemergence treatment. Treated plants and untreated controls were maintained in a greenhouse for approximately ten days, after which time all treated plants were compared to untreated controls and visually evaluated for injury. Plant response ratings, summarized in Table A, are based on a 0 to 100 scale where 0 is no effect and 100 is complete control. A dash (-) response means no test result.
# [2] = system: barnyardgrass (Echinochloa crus-galli); experiment: Test A pre-/postemergence plant response; conditions: for Barnyardgrass plant response rating: visual injury, 0 to 100 scale (0 no effect, 100 complete control), approx. ten days
# Source text: as §1, §2
# [3] = system: morningglory (Ipomoea spp.); experiment: Test A pre-/postemergence plant response; conditions: for Morningglory plant response rating: visual injury, 0 to 100 scale (0 no effect, 100 complete control), approx. ten days
# Source text: as §1, §2
# [4] = system: wheat (Triticum aestivum); experiment: Test A pre-/postemergence plant response; conditions: for Wheat plant response rating: visual injury, 0 to 100 scale (0 no effect, 100 complete control), approx. ten days
# Source text: as §1, §2
# corn (Zea mays) = experiment: Test A pre-/postemergence plant response; conditions: for Corn plant response rating: visual injury, 0 to 100 scale (0 no effect, 100 complete control), approx. ten days
# Source text: as §1, §2
# [5] = system: velvetleaf (Abutilon theophrasti); experiment: Test A pre-/postemergence plant response; conditions: for Velvetleaf plant response rating: visual injury, 0 to 100 scale (0 no effect, 100 complete control), approx. ten days
# Source text: as §1, §2
# [6] = system: pigweed (Amaranthus retroflexus); experiment: Test A pre-/postemergence plant response; conditions: for Pigweed plant response rating: visual injury, 0 to 100 scale (0 no effect, 100 complete control), approx. ten days
# Source text: as §1, §2
# [7] = system: giant foxtail (Setaria faberii); experiment: Test A pre-/postemergence plant response; conditions: for Foxtail, Giant plant response rating: visual injury, 0 to 100 scale (0 no effect, 100 complete control), approx. ten days
# Source text: as §1, §2
# [8] = system: barnyardgrass (Echinochloa crus-galli); experiment: Test B flooded paddy test; conditions: for Plant response rating, Barnyardgrass: Flood (flooded paddy test), 125 g ai/ha, scale 0 to 100, 0 is no effect, 100 is complete control, 13 to 15 days; for Barnyardgrass plant response rating: Flood, 31 g ai/ha, scale 0 to 100 (0 no effect, 100 complete control)
# Method in brief: (§3)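 Each compound is added to standing floodwater (3 cm above soil, maintained) in pots of 2-leaf-stage plants; greenhouse exposure lasts 13–15 d before visual comparison with controls on a 0–100 control scale.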
# [9] = system: ducksalad (Heteranthera limosa); experiment: Test B flooded paddy test; conditions: for Plant response rating, Ducksalad: Flood (flooded paddy test), 125 g ai/ha, scale 0 to 100, 0 is no effect, 100 is complete control, 13 to 15 days; for Ducksalad plant response rating: Flood, 31 g ai/ha, scale 0 to 100 (0 no effect, 100 complete control)
# Method in brief: as §3
# [10] = system: umbrella sedge (Cyperus difformis); experiment: Test B flooded paddy test; conditions: for Plant response rating, Sedge, Umbrella: Flood (flooded paddy test), 125 g ai/ha, scale 0 to 100, 0 is no effect, 100 is complete control, 13 to 15 days; for Sedge, Umbrella plant response rating: Flood, 31 g ai/ha, scale 0 to 100 (0 no effect, 100 complete control)
# Method in brief: as §3
# rice (Oryza sativa) = experiment: Test B flooded paddy test; conditions: for Plant response rating, Rice: Flood (flooded paddy test), 125 g ai/ha, scale 0 to 100, 0 is no effect, 100 is complete control, 13 to 15 days; for Rice plant response rating: Flood, 31 g ai/ha, scale 0 to 100 (0 no effect, 100 complete control)
# Method in brief: as §3
# [11] = Postemergence, 125 g ai/ha, 0 to 100 scale where 0 is no effect and 100 is complete control
# [12] = Preemergence, 125 g ai/ha, 0 to 100 scale, 0 = no effect, 100 = complete control
# [13] = Preemergence, 500 g ai/ha, 0 to 100 scale, 0 = no effect, 100 = complete control
compound,measurement,setting,value
C#CCn1c(-c2cc(F)cc(F)c2)ncc(C(=O)C2=C(O)CCCC2=O)c1=O [Compound 170],"Plant response rating, Crabgrass, Large",[1]; [11],60
same,"Crabgrass, Large plant response rating","[1]; Postemergence, 500 g ai/ha",90
same,"Plant response rating, Crabgrass, Large",[1]; [12],10
same,"Plant response rating, Crabgrass, Large",[1]; [13],70
same,"Plant response rating, Barnyardgrass",[2]; [11],40
same,Barnyardgrass plant response rating,"[2]; Postemergence, 500 g ai/ha",90
same,"Plant response rating, Barnyardgrass",[2]; [12],0
same,"Plant response rating, Barnyardgrass",[2]; [13],60
same,"Plant response rating, Morningglory",[3]; [11],100
same,Morningglory plant response rating,"[3]; Postemergence, 500 g ai/ha",100
same,"Plant response rating, Morningglory",[3]; [12],0
same,"Plant response rating, Morningglory",[3]; [13],70
same,"Plant response rating, Wheat",[4]; [11],0
same,Wheat plant response rating,"[4]; Postemergence, 500 g ai/ha",20
same,"Plant response rating, Wheat",[4]; [12],0
same,"Plant response rating, Wheat",[4]; [13],20
same,"Plant response rating, Corn",corn (Zea mays); [11],20
same,Corn plant response rating,"corn (Zea mays); Postemergence, 500 g ai/ha",30
same,"Plant response rating, Corn",corn (Zea mays); [12],0
same,"Plant response rating, Corn",corn (Zea mays); [13],0
same,"Plant response rating, Velvetleaf",[5]; [11],100
same,Velvetleaf plant response rating,"[5]; Postemergence, 500 g ai/ha",100
same,"Plant response rating, Velvetleaf",[5]; [12],10
same,"Plant response rating, Velvetleaf",[5]; [13],80
same,"Plant response rating, Pigweed",[6]; [11],80
same,Pigweed plant response rating,"[6]; Postemergence, 500 g ai/ha",100
same,"Plant response rating, Pigweed",[6]; [12],30
same,"Plant response rating, Pigweed",[6]; [13],50
same,"Plant response rating, Foxtail, Giant",[7]; [11],50
same,"Foxtail, Giant plant response rating","[7]; Postemergence, 500 g ai/ha",80
same,"Plant response rating, Foxtail, Giant",[7]; [12],10
same,"Plant response rating, Foxtail, Giant",[7]; [13],70
same,"Plant response rating, Barnyardgrass",[8],30
same,Barnyardgrass plant response rating,[8],0
same,"Plant response rating, Ducksalad",[9],45
same,Ducksalad plant response rating,[9],0
same,"Plant response rating, Sedge, Umbrella",[10],35
same,"Sedge, Umbrella plant response rating",[10],0
same,"Plant response rating, Rice",rice (Oryza sativa),20
same,Rice plant response rating,rice (Oryza sativa),15
CCCn1c(-c2cccc(C)c2)ncc(C(=O)C2=C(O)CCCC2=O)c1=O [Compound 172],"Plant response rating, Crabgrass, Large",[1]; [11],60
same,"Crabgrass, Large plant response rating","[1]; Postemergence, 500 g ai/ha",80
same,"Plant response rating, Crabgrass, Large",[1]; [12],10
same,"Plant response rating, Crabgrass, Large",[1]; [13],90
same,"Plant response rating, Barnyardgrass",[2]; [11],90
same,Barnyardgrass plant response rating,"[2]; Postemergence, 500 g ai/ha",90
same,"Plant response rating, Barnyardgrass",[2]; [12],10
same,"Plant response rating, Barnyardgrass",[2]; [13],80
same,"Plant response rating, Morningglory",[3]; [11],90
same,Morningglory plant response rating,"[3]; Postemergence, 500 g ai/ha",100
same,"Plant response rating, Morningglory",[3]; [12],0
same,"Plant response rating, Morningglory",[3]; [13],50
same,"Plant response rating, Wheat",[4]; [11],0
same,Wheat plant response rating,"[4]; Postemergence, 500 g ai/ha",20
same,"Plant response rating, Wheat",[4]; [12],0
same,"Plant response rating, Wheat",[4]; [13],0
same,"Plant response rating, Corn",corn (Zea mays); [11],20
same,Corn plant response rating,"corn (Zea mays); Postemergence, 500 g ai/ha",30
same,"Plant response rating, Corn",corn (Zea mays); [12],0
same,"Plant response rating, Corn",corn (Zea mays); [13],0
same,"Plant response rating, Velvetleaf",[5]; [11],100
same,Velvetleaf plant response rating,"[5]; Postemergence, 500 g ai/ha",100
same,"Plant response rating, Velvetleaf",[5]; [12],50
same,"Plant response rating, Velvetleaf",[5]; [13],80
same,"Plant response rating, Pigweed",[6]; [11],100
same,Pigweed plant response rating,"[6]; Postemergence, 500 g ai/ha",100
same,"Plant response rating, Pigweed",[6]; [12],10
same,"Plant response rating, Pigweed",[6]; [13],100
same,"Plant response rating, Foxtail, Giant",[7]; [11],60
same,"Foxtail, Giant plant response rating","[7]; Postemergence, 500 g ai/ha",90
same,"Plant response rating, Foxtail, Giant",[7]; [12],10
same,"Plant response rating, Foxtail, Giant",[7]; [13],60
same,"Plant response rating, Barnyardgrass",[8],20
same,Barnyardgrass plant response rating,[8],0
same,"Plant response rating, Ducksalad",[9],60
same,Ducksalad plant response rating,[9],20
same,"Plant response rating, Sedge, Umbrella",[10],75
same,"Sedge, Umbrella plant response rating",[10],0
same,"Plant response rating, Rice",rice (Oryza sativa),0
same,Rice plant response rating,rice (Oryza sativa),0
CCc1ccc(-n2c(-c3cccc(Br)c3)ncc(C(=O)C3=C(O)CCCC3=O)c2=O)cc1 [Compound 175],"Plant response rating, Crabgrass, Large",[1]; [11],40
same,"Crabgrass, Large plant response rating","[1]; Postemergence, 500 g ai/ha",80
same,"Plant response rating, Crabgrass, Large",[1]; [12],30
same,"Plant response rating, Crabgrass, Large",[1]; [13],50
same,"Plant response rating, Barnyardgrass",[2]; [11],50
same,Barnyardgrass plant response rating,"[2]; Postemergence, 500 g ai/ha",100
same,"Plant response rating, Barnyardgrass",[2]; [12],0
same,"Plant response rating, Barnyardgrass",[2]; [13],30
same,"Plant response rating, Morningglory",[3]; [11],10
same,Morningglory plant response rating,"[3]; Postemergence, 500 g ai/ha",80
same,"Plant response rating, Morningglory",[3]; [12],0
same,"Plant response rating, Morningglory",[3]; [13],10
same,"Plant response rating, Wheat",[4]; [11],0
same,Wheat plant response rating,"[4]; Postemergence, 500 g ai/ha",0
same,"Plant response rating, Wheat",[4]; [12],0
same,"Plant response rating, Wheat",[4]; [13],0
same,"Plant response rating, Corn",corn (Zea mays); [11],0
same,Corn plant response rating,"corn (Zea mays); Postemergence, 500 g ai/ha",20
same,"Plant response rating, Corn",corn (Zea mays); [12],0
same,"Plant response rating, Corn",corn (Zea mays); [13],0
same,"Plant response rating, Velvetleaf",[5]; [11],100
same,Velvetleaf plant response rating,"[5]; Postemergence, 500 g ai/ha",100
same,"Plant response rating, Velvetleaf",[5]; [12],40
same,"Plant response rating, Velvetleaf",[5]; [13],50
same,"Plant response rating, Pigweed",[6]; [11],100
same,Pigweed plant response rating,"[6]; Postemergence, 500 g ai/ha",100
same,"Plant response rating, Pigweed",[6]; [12],60
same,"Plant response rating, Pigweed",[6]; [13],100
same,"Plant response rating, Foxtail, Giant",[7]; [11],30
same,"Foxtail, Giant plant response rating","[7]; Postemergence, 500 g ai/ha",80
same,"Plant response rating, Foxtail, Giant",[7]; [12],0
same,"Plant response rating, Foxtail, Giant",[7]; [13],50
same,"Plant response rating, Barnyardgrass",[8],20
same,Barnyardgrass plant response rating,[8],0
same,"Plant response rating, Ducksalad",[9],95
same,Ducksalad plant response rating,[9],75
same,"Plant response rating, Sedge, Umbrella",[10],85
same,"Sedge, Umbrella plant response rating",[10],75
same,"Plant response rating, Rice",rice (Oryza sativa),0
same,Rice plant response rating,rice (Oryza sativa),0
